Experimental data taken from patent US12396977B2, “Composition for treating degenerative brain diseases, containing 2-pentylfuran as active ingredient” (DAEGU GYEONGBUK INSTITUTE OF SCIENCE AND TECHNOLOGY, priority 2019, dated 2025).
“Also recorded” adds a separate entry of the source.

Tests used:
Olfr110 F104W mutation = target: T1, Olfr110 F104W mutation (Mus musculus, UniProt A2RT31, F104W); experiment: Luciferase assay, Olfr110 F104W mutant; type: cell-based; details: increasing concentration of 2-PF
T1 construct: Full-length odorant receptor genes from mouse and human genomic DNA were amplified using appropriate primers; Lucy (N); Flag (N); Rho (N); expressed in transfected cells; host or cells: Hana3A cells
T1 sequence (A2RT31 1-317 F104W): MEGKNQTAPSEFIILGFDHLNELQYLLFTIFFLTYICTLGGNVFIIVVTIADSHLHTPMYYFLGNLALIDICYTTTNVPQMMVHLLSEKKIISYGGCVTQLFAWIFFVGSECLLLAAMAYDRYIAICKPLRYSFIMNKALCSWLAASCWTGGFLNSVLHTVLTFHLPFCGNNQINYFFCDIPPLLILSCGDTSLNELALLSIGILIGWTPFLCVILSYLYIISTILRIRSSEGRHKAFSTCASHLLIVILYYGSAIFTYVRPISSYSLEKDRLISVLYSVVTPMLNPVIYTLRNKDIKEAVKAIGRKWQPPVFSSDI
Excerpt: Specific mutant vectors of the Olfr110 structure were generated using PfuUltra High-Fidelity DNA polymerase (#600380; Agilent Technologies). All mutant vectors (F102W; F104W; Y252F; Y259F; F102W/F104W; Y252F/Y259F; F102W/Y252F/Y259F; F104W/Y252F/Y259F; F102W/F104W/Y252F/Y259F) were sequenced in forward and reverse directions (Macrogen).

primary microglia [1] = experiment: Western blot of phosphorylated signalling proteins in primary microglia; type: cell-based, mouse; details: 0, 2, 5, 10, 20, 30 minutes after treatment
Experimental: Cells and tissues were prepared using the T-PER® reagent (#78510; Thermo Fisher Scientific) with protease inhibitors (#04-693-116-001; Roche Molecular Diagnostics), DMSF (Sigma-Aldrich) and lysed using the MagNA Lyser (Roche Molecular Diagnostics). A total protein extract was quantified by the Bradford assay. The sample was dissolved in 7.5% SDS-PAGE or 4 to 20% gradient mini-PROTEIN TGX Precast Gels (#456-1064; Bio-Rad Laboratories), and then blotted onto nitrocellulose membranes (#10600002; GE Healthcare). The membrane was then blocked in 5% skimmed milk powder, TBST, 0.1% TWEEN® 20 (#P9416; Sigma-Aldrich) and Tris-buffered saline for 1 hour, and then incubated with primary antibodies at 4° C. overnight. The antibodies are as follows: Olfr110 (36 kDa; 1:1,000; #ab177327; Abcam), anti rhodopsin (39 kDa; 1:1,000; #MABN15; Millipore), CREB (43 kDa; 1:1,000; #9197; Cell Signaling Technology), phospho-CREB (43 kDa; 1:1,000; #9198; Cell Signaling Technology), ERK (44 kDa; 1:1,000; #sc094; Santa Cruz), phospho-ERK (42, 44 kDa; 1:1,000; #sc-7383; Santa Cruz), phospho-Akt (60 kDa; 1:500; sc-293125; Santa Cruz), phospho-JNK (46, 54 kDa; 1:500; sc-6254; Santa Cruz), phosphor-p38 (38 kDa; 1:1,000; sc-7973; Santa Cruz), or beta-Actin (45 kDa; 1:10,000; #4967; Cell Signaling Technology). Furthermore, an isotype-matched horseradish peroxidase-conjugated secondary antibody was used at 1:100,000 with anti-rabbit in TBST (#711-035-152; Jackson ImmunoResearch) and 1:40,000 with anti-mouse (#715-035-150; Jackson ImmunoResearch) at room temperature for 2 hours. As an immunoreactive protein band, SuperSignal™ West Pico Chemiluminescent Substrate (#34080; Thermo Fisher Scientific) was used.

microglia = experiment: GFP intensity / morphology of microglia in CX3CR1 GFP mice; type: in vivo, mouse; details: cerebral cortex of CX3CR1 GFP mice after injection, vs control
Experimental: In order to analyze morphological changes in microglia activation, 9-week-old CX3CR1^GFP/− mice were used. Two hours after an IP containing or not containing 2-PF was injected into two mice, brain sections were collected by cryosection. After a 40 μm-thick brain tissue fragment was prepared to be smaller than 1 μm, a GFP signal of microglia was measured using a 40-fold magnification confocal microscope. A GFP-pixel signal of microglia was analyzed using Zeiss ZEN Software (Zeiss).

Olfr111 = experiment: Luciferase assay in Hana3A cells, Olfr111; type: cell-based, mouse; details: Hana3A cells
Experimental: Next, Hana3A cells were transfected with RTP1S, and their location and presence on the cell membrane were confirmed as previously described (Behrens et al., 2009; Zhuang and Matsunami, 2008). Such transfection was performed using Lipofectamine 2000 (#11668-019; Thermo Fisher Scientific) according to the manufacturer's instructions. More specifically, the transfected cells were grown on a coverslip (#0101050; Marienfeld) coated with poly D lysine (10 μg/ml; #P7280; Sigma Aldrich). Next, the cells were washed with a warm PBS solution and cooled with ice for 30 minutes to block endocytosis. […] The cells were then incubated with normal horse serum (#008-000-121; Jackson ImmunoResearch) at room temperature for 1 hour. […] After being washed with PBS, the cells were treated with a Cy3-conjugated donkey anti-mouse antibody (1:1,000; #715-165-150; Jackson ImmunoResearch), an Alexa488-conjugated donkey anti-mouse antibody (1:1,000; #715-545-150; Jackson ImmunoResearch), or a Cy3-conjugated donkey anti-rabbit antibody (1:1,000; #711-165-152; Jackson ImmunoResearch) at room temperature for 1 hour. The cells were mounted with a Vectashield fluorescent mounting medium containing DAPI (#H-1200; Vector Laboratories). The expression of heterologous odorant receptors was analyzed with a confocal laser scanning microscope LSM700 and ZEN software (Zeiss).
The Dual-Glo luciferase assay system (#E2940; Promega) was used for odorant receptor ligand screening. More specifically, Hana3A cells were streaked and spread on a white polystyrene 96-well plate (#353296; BD Biosciences) one day before transfection. pCRELuc (1 μg; #219076; Agilent Technologies), pRL-SV40 (1 μg; #E2231; Promega), RTP1S (1 μg), and OR (6 μg; or Mock) vectors were transfected for 24 hours in each plate. Each plate was analyzed using Lipofectamine 2000 (#11668-019; Thermo Fisher Scientific) according to the manufacturer's protocol. Transfected cells were stimulated in CD293 medium (#11913-019; Thermo Fisher Scientific) at 37° C. for 4 hours using diluted odorants at various concentrations. The activity of luciferase was normalized by the activity of Renilla luciferase. The amount of light emitted was measured using a SpectraMax L microplate reader (Molecular Devices).

[2] = system: Hana3A cells expressing Olfr111; experiment: Boyden chamber chemotaxis, Hana3A cells expressing Olfr111; type: cell-based; details: 2-PF 10, 100, 1000 uM
Experimental: Cell chemotaxis was measured using a multiwell Boyden chamber. More specifically, a polycarbonate filter (8 μm pore; #101-8; Neuroprobe) was coated with […] fibronectin in PBS (Sigma-Aldrich) for 2 hours, and the coated filter was placed in a Boyden chamber. In addition, the bottom side of the plate was filled with serum-free DMEM containing 2-pentylfuran or a culture supernatant. Next, microglia or Hana3A cells were transfected with an odorant receptor structure and then suspended in serum-free DMEM. Subsequently, microglia and Hana3A cells were allowed to stand at 37° C. for 4 hours and 8 hours, respectively. Cells sinking to the bottom were fixed with 4% PFA, and stained with hematoxylin for 10 minutes. Fixed cells were counted under an optical microscope in 5 randomly selected fixed […] fields (200×) using a scored eyepiece. The chemical chemotaxis index was defined as the number of migrating cells using an untreated group as a standard.

primary microglia [3] = experiment: Phagocytosis of FITC-dextran by primary microglia (FACS); type: cell-based, mouse; details: 100, 300, and 500 μM
Experimental: Primary microglia were cultured for 24 hours after being seeded in a 24-well plate (5×10^5 cells/well). Cells were pre-cultured with 2-PF or Sup for 30 minutes, transferred to FITC-dextran (1 mg/ml, 20 mg/ml in PBS; #FD70S; Sigma Aldrich) in serum-free DMEM at 37° C. for […], and washed with PBS at 4° C. Cells were detached by 0.25% trypsin in PBS (#15090-046; Thermo Fisher Scientific) and the detached cells were analyzed by FACS Accuri™ C6 (BD Biosciences). Mean fluorescence intensity (MFI) was calculated by integrating fluorescence histograms under each condition using the aforementioned software. The phagocytosis index was defined as MFI using an untreated group as a standard.

For `CCCCCc1ccco1` [2-PF, 2-pentylfuran], the “luciferase activity of Olfr110 F104W mutant” value (Olfr110 F104W mutation) was “completely lost”, the “phosphorylation levels of ERK, p38, JNK, and Akt” value (primary microglia [1]) was “increased from 2 minutes and stopped increasing at 20 minutes” and the “GFP intensity of microglia (morphological change, activation)” value (microglia) was “highly increased”. For the same molecule, the “reactivity of Olfr111 (relative luciferase activity)” value (Olfr111) was “particularly strong reactivity; also recorded: highest reactivity”, the “mobility (chemotaxis) of Olfr111-expressing Hana3A cells” value [2] was “increased in mobility in a concentration-dependent manner” and the phagocytosis of microglia (primary microglia [3]) was “significantly increased in a concentration-dependent manner”.
